Legend:
[1] = Franz diffusion cell, membrane diffusion across hairless mouse skin; format: in vitro ADME; conditions: for relative order for membrane diffusion rate: ranking of excipients
Protocol: Diffusion of the compounds through hairless mouse skin into phosphate buffer in a Franz cell was carried out and measured as described in Example 1, with Sudan I being used in place of Fat Brown RR.

[2] = Franz diffusion cell, membrane diffusion across poly(dimethylsiloxane) membrane
[3] = saturated solution in alpha-terpineol, 0 hours
[4] = saturated solution in alpha-terpineol, 6 hours
[5] = saturated solution in alpha-terpineol, 12 hours
[6] = saturated solution in alpha-terpineol, 18 hours
[7] = saturated solution in alpha-terpineol, 24 hours
[8] = saturated solution in isostearic acid, 0 hours
[9] = saturated solution in isostearic acid, 6 hours
[10] = saturated solution in isostearic acid, 12 hours
[11] = saturated solution in isostearic acid, 18 hours
[12] = saturated solution in isostearic acid, 24 hours
[13] = saturated solution in propylene glycol, 0 hours
[14] = saturated solution in propylene glycol, 6 hours
[15] = saturated solution in propylene glycol, 12 hours
[16] = saturated solution in propylene glycol, 18 hours
[17] = saturated solution in propylene glycol, 24 hours
[18] = saturated solution in tetraglycol, 0 hours
[19] = saturated solution in tetraglycol, 6 hours
[20] = saturated solution in tetraglycol, 12 hours
[21] = saturated solution in tetraglycol, 18 hours
[22] = saturated solution in tetraglycol, 24 hours

C[C@]12CC[C@H]3[C@@H](CCC4=CC(=O)CC[C@@]43C)[C@@H]1CC[C@@H]2O [Testosterone, testosterone]
CUMULATIVE AMOUNT OF COMPOUND DIFFUSED ACROSS SKIN ([1]; Table 3, saturated solution in alpha-terpineol, 0 hours): 0 μg/10 mL | CUMULATIVE AMOUNT OF COMPOUND DIFFUSED ACROSS SKIN ([1]; Table 3, saturated solution in alpha-terpineol, 6 hours): 605 μg/10 mL | CUMULATIVE AMOUNT OF COMPOUND DIFFUSED ACROSS SKIN ([1]; Table 3, saturated solution in alpha-terpineol, 12 hours): 1585 μg/10 mL | CUMULATIVE AMOUNT OF COMPOUND DIFFUSED ACROSS SKIN ([1]; Table 3, saturated solution in alpha-terpineol, 18 hours): 3043 μg/10 mL | CUMULATIVE AMOUNT OF COMPOUND DIFFUSED ACROSS SKIN ([1]; Table 3, saturated solution in alpha-terpineol, 24 hours): 4414 μg/10 mL | CUMULATIVE AMOUNT OF COMPOUND DIFFUSED ACROSS SKIN ([1]; Table 3, saturated solution in isostearic acid, 0 hours): 0 μg/10 mL | CUMULATIVE AMOUNT OF COMPOUND DIFFUSED ACROSS SKIN ([1]; Table 3, saturated solution in isostearic acid, 6 hours): 74 μg/10 mL | CUMULATIVE AMOUNT OF COMPOUND DIFFUSED ACROSS SKIN ([1]; Table 3, saturated solution in isostearic acid, 12 hours): 192 μg/10 mL | CUMULATIVE AMOUNT OF COMPOUND DIFFUSED ACROSS SKIN ([1]; Table 3, saturated solution in isostearic acid, 18 hours): 418 μg/10 mL | CUMULATIVE AMOUNT OF COMPOUND DIFFUSED ACROSS SKIN ([1]; Table 3, saturated solution in isostearic acid, 24 hours): 740 μg/10 mL | CUMULATIVE AMOUNT OF COMPOUND DIFFUSED ACROSS SKIN ([1]; Table 3, saturated solution in propylene glycol, 0 hours): 0 μg/10 mL | CUMULATIVE AMOUNT OF COMPOUND DIFFUSED ACROSS SKIN ([1]; Table 3, saturated solution in propylene glycol, 6 hours): 79 μg/10 mL | CUMULATIVE AMOUNT OF COMPOUND DIFFUSED ACROSS SKIN ([1]; Table 3, saturated solution in propylene glycol, 12 hours): 216 μg/10 mL | CUMULATIVE AMOUNT OF COMPOUND DIFFUSED ACROSS SKIN ([1]; Table 3, saturated solution in propylene glycol, 18 hours): 546 μg/10 mL | CUMULATIVE AMOUNT OF COMPOUND DIFFUSED ACROSS SKIN ([1]; Table 3, saturated solution in propylene glycol, 24 hours): 956 μg/10 mL | CUMULATIVE AMOUNT OF COMPOUND DIFFUSED ACROSS SKIN ([1]; Table 3, saturated solution in tetraglycol, 0 hours): 0 μg/10 mL | CUMULATIVE AMOUNT OF COMPOUND DIFFUSED ACROSS SKIN ([1]; Table 3, saturated solution in tetraglycol, 6 hours): 23 μg/10 mL | CUMULATIVE AMOUNT OF COMPOUND DIFFUSED ACROSS SKIN ([1]; Table 3, saturated solution in tetraglycol, 12 hours): 46 μg/10 mL | CUMULATIVE AMOUNT OF COMPOUND DIFFUSED ACROSS SKIN ([1]; Table 3, saturated solution in tetraglycol, 18 hours): 81 μg/10 mL | CUMULATIVE AMOUNT OF COMPOUND DIFFUSED ACROSS SKIN ([1]; Table 3, saturated solution in tetraglycol, 24 hours): 119 μg/10 mL | relative order for membrane diffusion rate [1]: alpha-terpineol>propylene glycol>isostearic acid>tetraglycol | CUMULATIVE AMOUNT OF COMPOUND DIFFUSED ACROSS SKIN [1, 3]: 0 µg/mL | CUMULATIVE AMOUNT OF COMPOUND DIFFUSED ACROSS SKIN [1, 4]: 605 µg/mL | CUMULATIVE AMOUNT OF COMPOUND DIFFUSED ACROSS SKIN [1, 5]: 1585 µg/mL | CUMULATIVE AMOUNT OF COMPOUND DIFFUSED ACROSS SKIN [1, 6]: 3043 µg/mL | CUMULATIVE AMOUNT OF COMPOUND DIFFUSED ACROSS SKIN [1, 7]: 4414 µg/mL | CUMULATIVE AMOUNT OF COMPOUND DIFFUSED ACROSS SKIN [1, 8]: 0 µg/mL | CUMULATIVE AMOUNT OF COMPOUND DIFFUSED ACROSS SKIN [1, 9]: 74 µg/mL | CUMULATIVE AMOUNT OF COMPOUND DIFFUSED ACROSS SKIN [1, 10]: 192 µg/mL | CUMULATIVE AMOUNT OF COMPOUND DIFFUSED ACROSS SKIN [1, 11]: 418 µg/mL | CUMULATIVE AMOUNT OF COMPOUND DIFFUSED ACROSS SKIN [1, 12]: 740 µg/mL | CUMULATIVE AMOUNT OF COMPOUND DIFFUSED ACROSS SKIN [1, 13]: 0 µg/mL | CUMULATIVE AMOUNT OF COMPOUND DIFFUSED ACROSS SKIN [1, 14]: 79 µg/mL | CUMULATIVE AMOUNT OF COMPOUND DIFFUSED ACROSS SKIN [1, 15]: 216 µg/mL | CUMULATIVE AMOUNT OF COMPOUND DIFFUSED ACROSS SKIN [1, 16]: 546 µg/mL | CUMULATIVE AMOUNT OF COMPOUND DIFFUSED ACROSS SKIN [1, 17]: 956 µg/mL | CUMULATIVE AMOUNT OF COMPOUND DIFFUSED ACROSS SKIN [1, 18]: 0 µg/mL | CUMULATIVE AMOUNT OF COMPOUND DIFFUSED ACROSS SKIN [1, 19]: 23 µg/mL | CUMULATIVE AMOUNT OF COMPOUND DIFFUSED ACROSS SKIN [1, 20]: 46 µg/mL | CUMULATIVE AMOUNT OF COMPOUND DIFFUSED ACROSS SKIN [1, 21]: 81 µg/mL | CUMULATIVE AMOUNT OF COMPOUND DIFFUSED ACROSS SKIN [1, 22]: 119 µg/mL

CCN(CCO)c1ccc(N=Nc2ccc([N+](=O)[O-])cc2)cc1 [Disperse Red 1]
relative order for membrane diffusion rate ([2]; ranking of excipients): alpha-terpineol>isostearic acid>tetraglycol | CUMULATIVE AMOUNT OF COMPOUND DIFFUSED ACROSS SKIN [2, 3]: 0 μg/10 mL | CUMULATIVE AMOUNT OF COMPOUND DIFFUSED ACROSS SKIN [2, 7]: 11 μg/10 mL | CUMULATIVE AMOUNT OF COMPOUND DIFFUSED ACROSS SKIN ([2]; saturated solution in alpha-terpineol, 48 hours): 25 μg/10 mL | CUMULATIVE AMOUNT OF COMPOUND DIFFUSED ACROSS SKIN ([2]; saturated solution in alpha-terpineol, 72 hours): 45 μg/10 mL | CUMULATIVE AMOUNT OF COMPOUND DIFFUSED ACROSS SKIN [2, 8]: 0 μg/10 mL | CUMULATIVE AMOUNT OF COMPOUND DIFFUSED ACROSS SKIN [2, 12]: 3 μg/10 mL | CUMULATIVE AMOUNT OF COMPOUND DIFFUSED ACROSS SKIN ([2]; saturated solution in isostearic acid, 48 hours): 6 μg/10 mL | CUMULATIVE AMOUNT OF COMPOUND DIFFUSED ACROSS SKIN ([2]; saturated solution in isostearic acid, 72 hours): 12 μg/10 mL | CUMULATIVE AMOUNT OF COMPOUND DIFFUSED ACROSS SKIN [2, 13]: 0 μg/10 mL | CUMULATIVE AMOUNT OF COMPOUND DIFFUSED ACROSS SKIN [2, 17]: 1 μg/10 mL | CUMULATIVE AMOUNT OF COMPOUND DIFFUSED ACROSS SKIN ([2]; saturated solution in propylene glycol, 48 hours): 4 μg/10 mL | CUMULATIVE AMOUNT OF COMPOUND DIFFUSED ACROSS SKIN ([2]; saturated solution in propylene glycol, 72 hours): 10 μg/10 mL | CUMULATIVE AMOUNT OF COMPOUND DIFFUSED ACROSS SKIN [2, 18]: 0 μg/10 mL | CUMULATIVE AMOUNT OF COMPOUND DIFFUSED ACROSS SKIN [2, 22]: 1 μg/10 mL | CUMULATIVE AMOUNT OF COMPOUND DIFFUSED ACROSS SKIN ([2]; saturated solution in tetraglycol, 48 hours): 3 μg/10 mL | CUMULATIVE AMOUNT OF COMPOUND DIFFUSED ACROSS SKIN ([2]; saturated solution in tetraglycol, 72 hours): 6 μg/10 mL

Nc1ccc(N=Nc2cccc3ccccc23)c(N)c1 [Fat Brown RR]
relative order for membrane diffusion rate [1]: alpha-terpineol>propylene glycol>isostearic acid>tetraglycol | CUMULATIVE AMOUNT OF COMPOUND DIFFUSED ACROSS SKIN [1, 3]: 0 µg/mL | CUMULATIVE AMOUNT OF COMPOUND DIFFUSED ACROSS SKIN [1, 4]: 168 µg/mL | CUMULATIVE AMOUNT OF COMPOUND DIFFUSED ACROSS SKIN [1, 5]: 444 µg/mL | CUMULATIVE AMOUNT OF COMPOUND DIFFUSED ACROSS SKIN [1, 6]: 812 µg/mL | CUMULATIVE AMOUNT OF COMPOUND DIFFUSED ACROSS SKIN [1, 7]: 1162 µg/mL | CUMULATIVE AMOUNT OF COMPOUND DIFFUSED ACROSS SKIN [1, 8]: 0 µg/mL | CUMULATIVE AMOUNT OF COMPOUND DIFFUSED ACROSS SKIN [1, 9]: 41 µg/mL | CUMULATIVE AMOUNT OF COMPOUND DIFFUSED ACROSS SKIN [1, 10]: 92 µg/mL | CUMULATIVE AMOUNT OF COMPOUND DIFFUSED ACROSS SKIN [1, 11]: 169 µg/mL | CUMULATIVE AMOUNT OF COMPOUND DIFFUSED ACROSS SKIN [1, 12]: 262 µg/mL | CUMULATIVE AMOUNT OF COMPOUND DIFFUSED ACROSS SKIN [1, 13]: 0 µg/mL | CUMULATIVE AMOUNT OF COMPOUND DIFFUSED ACROSS SKIN [1, 14]: 84 µg/mL | CUMULATIVE AMOUNT OF COMPOUND DIFFUSED ACROSS SKIN [1, 15]: 221 µg/mL | CUMULATIVE AMOUNT OF COMPOUND DIFFUSED ACROSS SKIN [1, 16]: 445 µg/mL | CUMULATIVE AMOUNT OF COMPOUND DIFFUSED ACROSS SKIN [1, 17]: 677 µg/mL | CUMULATIVE AMOUNT OF COMPOUND DIFFUSED ACROSS SKIN [1, 18]: 0 µg/mL | CUMULATIVE AMOUNT OF COMPOUND DIFFUSED ACROSS SKIN [1, 19]: 13 µg/mL | CUMULATIVE AMOUNT OF COMPOUND DIFFUSED ACROSS SKIN [1, 20]: 25 µg/mL | CUMULATIVE AMOUNT OF COMPOUND DIFFUSED ACROSS SKIN [1, 21]: 39 µg/mL | CUMULATIVE AMOUNT OF COMPOUND DIFFUSED ACROSS SKIN [1, 22]: 52 µg/mL

From patent US20050065062A1, “Method of formulating a pharmaceutical composition” (3M Innovative Properties Company, priority 2003, published 2005)
